# Results published in patent US7276339B2 (H. Lundbeck A/S, priority 1998, dated 2007).
# Like-named read-outs stand apart in the source and are kept apart here. Non-standard residues stand in square brackets, D forms with d. Residues, ends and D or L forms follow the SMILES beside them. No end group written: not given here. NMeF = CN[C@@H](Cc1ccccc1)C(=O)O
# Legend:
# human NPFF1 receptor = target: T1, human NPFF1 receptor (Homo sapiens, UniProt Q9GZQ6); assay: [125I]D-Tyr-NPFF radioligand binding, HEK-293 cells expressing human NPFF1; conditions: Table 3, read-out: pKi ± SEM, human NPFF1 (converted)
# T1 construct: To obtain a full-length hNPFF1 construct in the correct orientation; expressed in transfected cells; host or cells: HEK-293 (transient)
# Description: (§1) Transfected cells from culture flasks are scraped into 5 ml of 20 mM Tris-HCl, 5 mM EDTA, pH 7.5, and lysed by sonication. The cell lysates are centrifuged at 1000 rpm for 5 min. at 4° C., and the supernatant is centrifuged at 30,000×g for 20 min. at 4° C. The pellet is suspended in binding buffer (50 mM Tris-HCl, 60 mM NaCl, 1 mM MgCl, 33 μM EDTA, 33 μM EGTA at pH 7.4 supplemented with 0.2% BSA, 2 μg/ml aprotinin, and 20 μM bestatin). Optimal membrane suspension dilutions, defined as the protein concentration required to bind less than 10% of the added radioligand, are added to 96-well polpropylene microtiter plates containing ^3H-labeled compound, unlabeled compounds, and binding buffer to a final volume of 250 μl. In equilibrium saturation binding assays membrane preparations are incubated in the presence of increasing concentrations of [^3H]-labeled compound. The binding affinities of the different compounds are determined in equilibrium competition binding assays, using [^125I]-labeled compound in the presence of ten to twelve different concentrations of the displacing ligands. Competition assay: 50 pM radioligand, 10-12 points. Binding reaction mixtures are incubated for 2 hr at 25° C., and the reaction stopped by filtration through a double layer of GF filters treated with 0.1% polyethyleneimine, using a cell harvester. Wash buffer: 50 mM Tris-HCl, 0.1% BSA. Radioactivity may be measured by scintillation counting and data are analyzed by a computerized non-linear regression program. Non-specific binding is defined as the amount of radioactivity remaining after incubation of membrane protein in the presence of 1 μM final concentration […]. Protein concentration may be measured by the Bradford method using Bio-Rad Reagent, with bovine serum albumin as a standard.
# (§2) Additional pharmacological evaluation was done using 293 human embryonic kidney cells (HEK-293 cells) transiently expressing the genes encoding the human NPFF1, NPFF2, and rat NPFF1 receptors, as well as Cos-7 cells expressing the rat NPFF2 receptors.
# human NPFF2 receptor = target: T2, human NPFF2 receptor (Homo sapiens, UniProt Q9Y5X5); assay: [125I]D-Tyr-NPFF radioligand binding, HEK-293 cells expressing human NPFF2; conditions: Table 3; HEK-293 cells; [125I]D-Tyr-NPFF; read-out: pKi ± SEM, human NPFF2 (converted)
# T2 construct: BO89, was determined to be a full length clone with no point mutations; expressed in transfected cells; host or cells: HEK-293 (transient)
# Description: as §1, §2
# rat NPFF2 receptor [1] = target: T3, rat NPFF2 receptor (Rattus norvegicus, UniProt Q9EQD2); assay: [125I]D-Tyr-NPFF radioligand binding, cloned rat NPFF2; conditions: Table 3; title HEK-293 cells (text: Cos-7); [125I]D-Tyr-NPFF; read-out: pKi ± SEM, rat NPFF2 (converted)
# T3 construct: The full-length rat NPFF2 clone was amplified from rat spinal cord cDNA; expressed in transfected cells; host or cells: COS-7
# Description: as §1, §2
# [2] = cited from earlier work
# rat NPFF1 receptor [3] = target: T4, rat NPFF1 receptor (Rattus norvegicus, UniProt Q9EP86); assay: [125I]D-Tyr-NPFF radioligand binding, HEK-293 cells expressing rat NPFF1; design: expressed in transfected cells; conditions: Table 3, read-out: pKi ± SEM, rat NPFF1 (converted)
# Description: as §1, §2
# rat NPFF2 receptor [4] = target: T3, rat NPFF2 receptor; assay: Functional activity at cloned rat NPFF2 in COS-7 cells; type: cell-based
# NPFF-1 receptor = target: T5, NPFF-1 receptor (Rattus norvegicus, UniProt Q9EP86); assay: Total inositol phosphate release, Cos-7 cells transiently transfected with NPFF1; type: cell-based
# T5 construct: expressed in transfected cells; host or cells: COS-7 (transient), alone or co-transfected with Gq/Gz chimera
# NPFF1 (SNORF2) = target: T6, NPFF1 (SNORF2) (Rattus norvegicus, UniProt Q9EP86); assay: Voltage-clamp electrophysiology, Xenopus oocytes injected with SNORF2 (NPFF1) and chimeric Gαq/z RNA; type: cell-based; conditions: oocytes with SNORF2 + Gαq/z
# T6 construct: linearized plasmids or PCR products containing the complete coding region of the genes; expressed in transfected cells; host or cells: Xenopus laevis oocytes injected with synthetic RNA (T7 transcripts)
# Description: Oocytes were harvested from Xenopus laevis and injected with mRNA transcripts as previously described (Quick and Lester, 1994; Smith et al., 1997). […] Three to eight hours prior to recording, oocytes were injected with 500 pg Gαq/z mRNA in order to observe coupling to Ca^++ activated Cl^− currents. Dual electrode voltage clamp (Axon Instruments Inc.) was performed using 3 M KCl-filled glass microelectrodes having resistances of 1-2 Mohm. Unless otherwise specified, oocytes were voltage clamped at a holding potential of −80 mV. During recordings, oocytes were bathed in continuously flowing (1-3 ml/min) medium containing 96 mM NaCl, 2 mM KCl, 1.8 mM CaCl2, 1 mM MgCl2, and 5 mM HEPES, pH 7.5 (ND96). Drugs were applied either by local perfusion from a […] glass capillary tube fixed at a distance of 0.5 mm from the oocyte, or by switching from a series of gravity fed perfusion lines.
# Heterologous expression of GPCRs in Xenopus oocytes has been widely used to determine the identity of signaling pathways activated by agonist stimulation (Gundersen et al., 1983; Takahashi et al., 1987). Activation of the phospholipase C (PLC) pathway is assayed by applying test compound in ND96 solution to oocytes previously injected with mRNA for the mammalian receptor and observing inward currents at a holding potential of −80 mV. The appearance of currents that reverse at −25 mV and display other properties of the Ca^++-activated Cl^− (chloride) channel is indicative of mammalian receptor-activation of PLC and release of IP3 and intracellular Ca^++.
# normotensive rats = assay: Blood pressure in anesthetized normotensive rats, intravenous administration; type: in vivo, rat; conditions: i.v.; NPFF 1.0 mg/kg, fPP 0.1 mg/kg
# Text: Rats were anesthetized with urethane and PE50 cannulae were placed in the femoral artery and vein for blood pressure monitoring and drug administration, respectively.
# anesthetized rats = assay: Distension-induced rhythmic contraction (DIRC) model of the micturition reflex in anesthetized rats; type: in vivo, rat; conditions: i.v.
# Description: The effects of compounds on the micturition reflex were assessed in the “distension-induced rhythmic contraction” (DIRC) model in rats. This model of the micturition reflex has been described in previous publications (e.g. 72, 73).
# Female Sprague Dawley rats weighing approximately 300 g were anesthetized with subcutaneous urethane (1.2 g/kg). The trachea was cannulated with PE240 tubing to provide a clear airway throughout the experiment. A midline abdominal incision was made and the left and right ureters were isolated. The ureters were ligated distally (to prevent escape of fluids from the bladder) and cannulated proximally with PE10 tubing. The incision was closed using 4-0 silk sutures, leaving the PE10 lines routed to the exterior for the elimination of urine. The bladder was canulated via the transurethral route using PE50 tubing inserted 2.5 cm beyond the urethral opening. This cannula was secured to the tail using tape and connected to a pressure transducer. To prevent leakage from the bladder, the cannula was tied tightly to the exterior urethral opening using 4-0 silk.
# To initiate the micturition reflex, the bladder was first emptied by applying pressure to the lower abdomen, and then filled with normal saline in 100 μl increments (maximum=2 ml) until spontaneous bladder contractions occurred (typically 20-40 mmHg at a rate of one contraction every 2 to 3 minutes. Once a regular rhythm was established, vehicle (saline) or test compounds were administered intravenously to examine their effects on bladder activity. The effect of a compound which inhibited the micturition reflex was expressed as its “disappearance time”, defined as the time between successive bladder contractions in the presence of the test compound minus the time between contractions before compound administration.
# rat NPFF1 receptor [5] = target: T4, rat NPFF1 receptor; assay: Functional activity at cloned rat NPFF1 in COS-7 cells; type: cell-based; design: expressed in transfected cells; host or cells: COS-7 (transient)
# human NPY Y1 receptor = target: T7, human NPY Y1 receptor (Homo sapiens, UniProt P25929); conditions: cited from earlier work
# T7 sequence (P25929 1-384): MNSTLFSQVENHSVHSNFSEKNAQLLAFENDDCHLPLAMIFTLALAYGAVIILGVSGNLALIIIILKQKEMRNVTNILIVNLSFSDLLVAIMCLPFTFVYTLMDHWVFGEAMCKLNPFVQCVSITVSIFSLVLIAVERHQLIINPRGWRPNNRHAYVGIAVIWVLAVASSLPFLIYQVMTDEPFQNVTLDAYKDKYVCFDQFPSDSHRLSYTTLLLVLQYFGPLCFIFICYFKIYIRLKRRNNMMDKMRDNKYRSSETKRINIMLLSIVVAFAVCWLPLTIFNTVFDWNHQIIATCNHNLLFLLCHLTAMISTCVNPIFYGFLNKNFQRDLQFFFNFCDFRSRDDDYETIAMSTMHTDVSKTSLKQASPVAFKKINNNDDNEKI
# T4 sequence (Q9EP86 whole entry): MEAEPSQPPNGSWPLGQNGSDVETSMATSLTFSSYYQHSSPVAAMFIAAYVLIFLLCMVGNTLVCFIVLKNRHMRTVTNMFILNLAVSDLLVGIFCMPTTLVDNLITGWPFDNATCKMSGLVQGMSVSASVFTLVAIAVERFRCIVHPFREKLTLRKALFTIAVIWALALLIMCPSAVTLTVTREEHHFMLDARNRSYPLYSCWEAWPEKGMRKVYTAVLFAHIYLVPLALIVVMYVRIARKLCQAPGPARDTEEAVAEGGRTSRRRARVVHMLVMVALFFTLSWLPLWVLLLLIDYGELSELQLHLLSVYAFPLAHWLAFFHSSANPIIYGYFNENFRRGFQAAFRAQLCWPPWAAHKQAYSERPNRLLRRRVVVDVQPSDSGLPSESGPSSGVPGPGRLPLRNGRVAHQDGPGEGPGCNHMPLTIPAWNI
# T3 sequence (Q9EQD2 whole entry): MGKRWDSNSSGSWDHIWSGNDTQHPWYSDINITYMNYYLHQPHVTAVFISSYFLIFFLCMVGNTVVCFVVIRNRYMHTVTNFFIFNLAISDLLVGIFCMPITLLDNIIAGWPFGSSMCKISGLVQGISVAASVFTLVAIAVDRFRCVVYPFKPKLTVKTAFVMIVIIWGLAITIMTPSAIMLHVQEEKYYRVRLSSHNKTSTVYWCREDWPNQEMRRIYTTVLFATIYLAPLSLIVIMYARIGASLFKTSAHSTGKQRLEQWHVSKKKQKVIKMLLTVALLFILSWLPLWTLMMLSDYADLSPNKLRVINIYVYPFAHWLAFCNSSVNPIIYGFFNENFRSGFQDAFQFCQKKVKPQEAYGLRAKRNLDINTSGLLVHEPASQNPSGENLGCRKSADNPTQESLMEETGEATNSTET
# T5 sequence (Q9EP86 whole entry): as the sequence (Q9EP86 whole entry) above
# T6 sequence (Q9EP86 whole entry): as above
# T1 sequence (Q9GZQ6 whole entry): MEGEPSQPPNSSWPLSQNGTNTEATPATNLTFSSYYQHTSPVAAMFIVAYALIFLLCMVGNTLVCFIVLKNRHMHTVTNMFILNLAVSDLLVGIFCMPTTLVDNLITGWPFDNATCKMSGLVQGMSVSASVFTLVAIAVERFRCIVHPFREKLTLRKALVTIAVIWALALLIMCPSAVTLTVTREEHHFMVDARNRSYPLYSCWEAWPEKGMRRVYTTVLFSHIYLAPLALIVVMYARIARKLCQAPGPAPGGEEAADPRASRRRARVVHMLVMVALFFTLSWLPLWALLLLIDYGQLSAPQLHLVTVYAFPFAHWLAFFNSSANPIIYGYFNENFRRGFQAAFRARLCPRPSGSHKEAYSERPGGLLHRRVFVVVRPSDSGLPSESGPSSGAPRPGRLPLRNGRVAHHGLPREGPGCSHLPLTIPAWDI
# T2 sequence (Q9Y5X5 103-522): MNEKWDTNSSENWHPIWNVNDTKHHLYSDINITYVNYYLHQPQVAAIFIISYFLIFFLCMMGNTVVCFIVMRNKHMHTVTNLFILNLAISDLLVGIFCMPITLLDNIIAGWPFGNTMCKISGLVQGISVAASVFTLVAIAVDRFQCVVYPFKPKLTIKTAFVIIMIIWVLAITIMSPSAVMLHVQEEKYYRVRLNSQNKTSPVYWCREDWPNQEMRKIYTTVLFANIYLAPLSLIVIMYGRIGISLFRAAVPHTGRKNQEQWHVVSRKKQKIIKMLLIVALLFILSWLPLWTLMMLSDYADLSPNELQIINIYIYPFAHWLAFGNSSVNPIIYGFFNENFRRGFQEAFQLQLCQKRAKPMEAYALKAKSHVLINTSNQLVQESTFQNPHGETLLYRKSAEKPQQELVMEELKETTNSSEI
molecule,measurement,setting,value
CC(C)C[C@H](NC(=O)[C@H](N)Cc1ccc(O)cc1)C(=O)N(C)[C@@H](Cc1ccccc1)C(=O)N[C@@H](CCC(N)=O)C(=O)N1CCC[C@H]1C(=O)N[C@@H](CCC(N)=O)C(=O)N[C@@H](CCCN=C(N)N)C(=O)N[C@@H](Cc1ccccc1)C(N)=O [(D-Tyr^1-(NMe)Phe^3)NPFF] (H-[dY]L[NMeF]QPQRF-NH2),Ki,human NPFF1 receptor,7.94 nM
same,Ki,human NPFF2 receptor,3.16 nM
same,Ki,rat NPFF2 receptor [1],2 nM
same,stable after incubation with rat spinal cord membranes,[2]; 150 min. incubation,90%
same,Ki,rat NPFF1 receptor [3],1.58 nM
YLFQPQRF-NH2 [Y8Fa],degradation on incubation with rat spinal cord membranes,[2]; after 30 minutes,fully degraded
CC(C)C[C@H](NC(=O)[C@@H](N)Cc1ccccc1)C(=O)N[C@@H](Cc1ccccc1)C(=O)N[C@@H](CCC(N)=O)C(=O)N1CCC[C@H]1C(=O)N[C@@H](CCC(N)=O)C(=O)N[C@@H](CCCNC(=N)N)C(=O)N[C@@H](Cc1ccccc1)C(N)=O [NPFF],"Maximum Effect (% NPFF), rat NPFF2",rat NPFF2 receptor [4],100 % NPFF
same,"Emax, total IP release",NPFF-1 receptor; NPFF1 + Gq/Gz chimera,approximately 1500 % basal
same,"Emax, total IP release",NPFF-1 receptor; NPFF1 alone,approximately 200 % basal
same,inward current response,"NPFF1 (SNORF2); 1 μM, holding potential −80 mV",robust inward currents
same,threshold for activation of inward current,NPFF1 (SNORF2),30 nM
same,effect on mean arterial blood pressure (MAP),normotensive rats,transient increase
same,disappearance time of bladder contractions,anesthetized rats; 0.3 to 3.0 mg/kg,dose-dependently increased
same,effect on distension-induced rhythmic contractions of the bladder,anesthetized rats; fPP 0.1 mg/kg,inhibited
same,EC50,rat NPFF1 receptor [5],9.3 nM
same,"Maximum Effect (% NPFF), rat NPFF1",rat NPFF1 receptor [5]; COS-7 cells,100 % NPFF
NC(N)=NCCC[C@H](NC(=O)C(c1ccccc1)c1ccccc1)C(=O)NCc1ccc(O)cc1 [BIBP3435],EC50,rat NPFF2 receptor [4],5420 nM
same,"Maximum Effect (% NPFF), rat NPFF2",rat NPFF2 receptor [4],71 % NPFF
same,"binding affinity, human NPY Y1 receptor",human NPY Y1 receptor,"> 10,000 nM"
same,"Maximum Effect (% NPFF), rat NPFF1",rat NPFF1 receptor [5]; COS-7 cells,0 % NPFF
same,EC50,"rat NPFF1 receptor [5]; COS-7 cells, read-out: EC50, rat NPFF1",> 10000 nM
